Source: patent publication US20060111341A1, “Use of galanthamine and the derivatives thereof in the production of medicaments” (priority 2003, published 2006)

Columns and labels:
[1] = target: Acetylcholinesterase (Homo sapiens, UniProt P22303); assay: biochemical
[2] = target: Butyrylcholinesterase (Homo sapiens, UniProt P06276); assay: biochemical
Chain of Butyrylcholinesterase (P06276 29-602): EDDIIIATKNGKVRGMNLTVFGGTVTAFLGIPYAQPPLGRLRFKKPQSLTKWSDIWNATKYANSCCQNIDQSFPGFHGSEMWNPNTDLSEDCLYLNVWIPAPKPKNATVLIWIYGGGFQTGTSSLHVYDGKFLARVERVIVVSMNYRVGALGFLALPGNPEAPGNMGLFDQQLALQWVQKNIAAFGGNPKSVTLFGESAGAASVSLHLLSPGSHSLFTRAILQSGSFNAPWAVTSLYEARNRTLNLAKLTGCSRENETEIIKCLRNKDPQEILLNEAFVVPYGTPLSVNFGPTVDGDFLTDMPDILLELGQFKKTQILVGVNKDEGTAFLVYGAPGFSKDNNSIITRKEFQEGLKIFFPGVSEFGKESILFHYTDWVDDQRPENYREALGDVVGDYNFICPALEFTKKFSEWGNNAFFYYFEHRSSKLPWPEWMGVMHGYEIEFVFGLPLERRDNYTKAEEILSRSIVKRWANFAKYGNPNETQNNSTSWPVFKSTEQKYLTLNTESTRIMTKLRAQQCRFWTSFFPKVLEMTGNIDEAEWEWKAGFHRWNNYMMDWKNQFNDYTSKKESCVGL

Chain of Acetylcholinesterase (P22303 32-614): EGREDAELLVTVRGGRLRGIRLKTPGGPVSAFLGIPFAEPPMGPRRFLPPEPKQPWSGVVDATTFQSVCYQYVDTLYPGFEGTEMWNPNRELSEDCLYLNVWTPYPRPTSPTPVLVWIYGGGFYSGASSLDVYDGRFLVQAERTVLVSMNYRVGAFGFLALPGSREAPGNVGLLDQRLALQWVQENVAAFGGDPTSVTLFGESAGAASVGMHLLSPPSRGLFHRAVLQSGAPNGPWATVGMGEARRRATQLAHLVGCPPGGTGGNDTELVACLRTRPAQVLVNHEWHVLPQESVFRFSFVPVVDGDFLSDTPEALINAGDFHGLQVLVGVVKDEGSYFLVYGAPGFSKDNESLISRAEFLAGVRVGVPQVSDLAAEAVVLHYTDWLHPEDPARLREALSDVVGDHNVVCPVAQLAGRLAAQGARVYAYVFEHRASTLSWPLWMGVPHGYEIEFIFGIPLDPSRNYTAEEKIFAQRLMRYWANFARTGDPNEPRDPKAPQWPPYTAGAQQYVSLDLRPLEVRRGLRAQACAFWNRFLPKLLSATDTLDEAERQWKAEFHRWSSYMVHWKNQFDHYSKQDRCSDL

Structure (SMILES)	IC50 [1] [µM]	IC50 [2] [µM]
COc1cc(C)c2c3c1OC1C[C@@H](O)C=CC31CC[N+](C)(Cc1ccccc1)C2 (mixture of isomers) [Nr 69]	47	0.7
COc1ccc2c3c1OC1C[C@@H](O)C=CC31CCN(CCO)C2 (mixture of isomers) [Nr 34]	14	26
COc1ccc2c3c1O[C@H]1C[C@@H](O)C=C[C@@]31CC[N+](C)=C2 [Nr 127]	0.3	1.5
COc1ccc2c(c1)CC(CCCCN1CC[C@@]34C=C[C@H](O)C[C@@H]3Oc3c(OC)ccc(c34)C1)C2=O (stereo partly shown) [Nr 157]	0.022	0.8
COc1ccc2c3c1OC1C[C@@H](O)C=CC31CCN(CC#N)C2 (mixture of isomers) [Nr 37]	30	> 100
COc1ccc2c3c1O[C@H]1C[C@@H](O)C=C[C@]31CC[N+](C)(CCN1CCOCC1)C2 (stereo partly shown) [Nr 199]	5	–
COc1cc2c(cc1OC)C(=O)C(CCCCCN1CC[C@@]34C=C[C@H](O)C[C@@H]3Oc3c(OC)ccc(c34)C1)C2 (stereo partly shown) [Nr 166]	0.023	–
COc1ccc2c3c1O[C@H]1C[C@@H](O)C=C[C@@]31CC[N+](C)(CCN1CCCC1)C2 (stereo partly shown) [Nr 7]	2	–
C=CCN1CCC23C=C[C@H](O)CC2Oc2c(OC)cc(C)c(c23)C1 (mixture of isomers) [Nr 62]	> 100	2.3
COc1ccc2c3c1OC1C[C@@H](O)C=CC31CCN(CCCN1CC3CC1CN3c1ccccc1)C2 (mixture of isomers) [Nr 60]	24	7.5
COc1ccc2c3c1O[C@H]1C[C@@H](O)C=C[C@@]31CCN(CC1CC1)C2 [Nr 131]	0.7	1.2
CCN(CC)c1nccc(N2CCC34C=C[C@H](O)CC3Oc3c(OC)ccc(c34)C2)n1 (mixture of isomers) [Nr 97]	25	> 100
C=C(C)C[N+]1(C)CCC23C=C[C@@H](O)CC2Oc2c(OC)cc(C)c(c23)C1 (mixture of isomers) [Nr 102]	> 100	95
COc1ccc2c3c1O[C@H]1C[C@@H](O)C=C[C@@]31CCN(/C(=N/C#N)SC)C2 [Nr 117]	6.7	30
COc1ccc2c3c1O[C@H]1C[C@@H](O)C=C[C@@]31CCN(CCCCCCN1C(=O)c3ccccc3S1(=O)=O)C2 [Nr 164]	0.043	–
COc1ccc2c3c1O[C@H]1C[C@@H](O)C=C[C@@]31CCN(c1cccs1)C2 [Nr 124]	4	0.54
COc1ccc2c3c1OC1C/C(=N/N)C=CC31CCN(C)C2 (racemic) [Nr 28]	40	–
COc1ccc2c3c1O[C@H]1C[C@@H](OC(=O)N[C@@H](C)c4ccccc4)C=C[C@@]31CCN(C)C2 [Nr 3]	–	75
COc1cc(Br)c2c(c1O)C13CCC(O)CC1N(CC3)C2 (racemic) [Nr 205]	50	–
COc1ccc2c3c1O[C@H]1C[C@@H](O)C=C[C@@]31CCN(C)C2C (stereo partly shown) [Nr 135]	4.2	25
COc1ccc2c3c1O[C@H]1C[C@@H](O)C=C[C@@]31CCN(CCCCN1C(=O)c3ccccc3S1(=O)=O)C2 [Nr 161]	0.022	1.5
COc1ccc2c3c1O[C@H]1C[C@@H](O)C=C[C@@]31CCN(CCCCCN1C(=O)c3ccccc3S1(=O)=O)C2 [Nr 163]	0.022	–
CCOC(=O)/C=C/N1CCC23C=C[C@H](O)CC2Oc2c(OC)ccc(c23)C1 (mixture of isomers) [Nr 110]	50	> 100
COc1cc(N(C)C)c2c3c1O[C@H]1C[C@@H](O)C=C[C@@]31CCN(C)C2 [Nr 56]	> 100	0.47

Structure (SMILES)	IC50 [1] [µM]	IC50 [2] [µM]
COc1ccc2c3c1O[C@H]1C[C@@H](O)C=C[C@@]31CC[N+](C)(CC(N)=O)C2 (stereo partly shown) [Nr 51]	3.1	–
CCN(CC)c1nc(N(CC)CC)nc(N2CCC34C=C[C@H](O)CC3Oc3c(OC)ccc(c34)C2)n1 (mixture of isomers) [Nr 95]	40	> 100
COc1ccc2c3c1O[C@@H]1C[C@H](O)C=C[C@]31CCN(C(=O)NC(C)(C)C)C2 [Nr 125]	93	–
COc1cc(C)c2c3c1OC1C[C@H](O)C=CC31CC[N+](C)(Cc1ccc(C(F)(F)F)cc1)C2 (mixture of isomers) [Nr 105]	60	5.4
COc1ccc2c(c1)CC(CCCCN1CC[C@@]34C=C[C@H](O)C[C@@H]3Oc3c(OC)ccc(c34)C1)C2=O (stereo partly shown) [Nr 168]	0.024	–
COc1ccc2c3c1O[C@H]1C[C@@H](O)C=C[C@@]31CCN(C)C2C#N (stereo partly shown) [Nr 133]	0.8	> 100
COc1ccc2c3c1O[C@H]1C[C@@H](O)C=C[C@@]31CCN(CCCO)C2 [Nr 144]	2.8	5
COc1cc(C)c2c3c1OC1C[C@@H](O)C=CC31CCN(C)C2C#N (mixture of isomers) [Nr 145]	80	> 100
COc1ccc2c3c1OC1C[C@@H](O)C=CC31CCN(CCN1CCOCC1)C2 (mixture of isomers) [Nr 36]	–	7
COc1ccc2c3c1OC1C[C@@H](O)C=CC31CCN(C(=O)Nc1ccccc1)C2 (mixture of isomers) [Nr 76]	70	> 100
COc1ccc2c3c1O[C@H]1C[C@@H](O)C=C[C@@]31CCN(C(=O)Oc1ccccc1)C2 [Nr 137]	46	> 100
COc1ccc2c3c1OC1C[C@@H](O)C=CC31CCN(/C(=N/C#N)SC)C2 (mixture of isomers) [Nr 79]	25	0.54
COc1ccc2c3c1O[C@H]1C[C@@H](O)C=C[C@@]31CC[N+](C)(CC1CC1)C2 (stereo partly shown) [Nr 53]	1.2	3.6
COc1ccc2c3c1O[C@H]1C[C@@H](O)C=C[C@@]31CC[N+](C)(CCN1CCCCC1)C2 (stereo partly shown) [Nr 52]	4	–
COc1cc(Br)c2c3c1O[C@H]1C[C@@H](O)C=C[C@@]31CCN(C)C2 [Nr 30]	4	–
COc1cc(Br)c2c(c1O)C13C=CC(=O)CC1N(CC3)C2 (racemic) [Nr 13]	5	–
COc1ccc2c3c1O[C@@H]1C[C@H](OC(=O)N[C@H](C)c4ccccc4)C=C[C@]31CCN(C)C2 [Nr 180]	85	–
COc1ccc2c3c1OC1C[C@@H](O)C=CC31CCN(CCC#N)C2 (mixture of isomers) [Nr 77]	–	> 100
COc1ccc2c3c1OC1C[C@@H](O)C=CC31CCN(C(=O)CCl)C2 (mixture of isomers) [Nr 98]	–	20
COc1ccc2c3c1O[C@@H]1C[C@H](OC(=S)Nc4ccccc4)C=C[C@]31CCN(C)C2 [Nr 181]	35	–
COc1ccc2c3c1O[C@H]1C[C@@H](O)C=C[C@@]31CC[N+](C)(CCN(C)C)C2 (stereo partly shown) [Nr 8]	8	–
CCNC(=O)N1CCC23C=C[C@H](O)CC2Oc2c(OC)ccc(c23)C1 (mixture of isomers) [Nr 87]	–	> 100
COc1ccc2c3c1O[C@H]1C[C@H](OC(=O)CNC(=O)OC(C)(C)C)C=C[C@@]31CCN(C)C2 [Nr 6]	45	–
COc1cc(C)c2c3c1O[C@H]1C[C@@H](O)C=C[C@@]31CCN(C)C2C (stereo partly shown) [Nr 146]	83	–

Structure (SMILES)	IC50 [1] [µM]	IC50 [2] [µM]
C#CCN1CC[C@@]23C=C[C@H](O)C[C@@H]2Oc2c(OC)ccc(c23)C1 [Nr 156]	32	–
COc1cc(Br)c2c3c1OC1C[C@@H](O)C=CC31CCN(CCN1CCOCC1)C2 (mixture of isomers) [Nr 25]	3	–
COc1ccc2c3c1O[C@@H]1C[C@H](O)C=C[C@]31CCN(CCCN(C)C)C2 [Nr 151]	–	67
COc1ccc2c3c1O[C@H]1C[C@@H](O)C=C[C@@]31CC[N+](C)(CCCCl)C2 (stereo partly shown) [Nr 59]	0.35	–
COc1ccc2c3c1O[C@H]1C[C@@H](O)C=C[C@@]31CCN(C)[C@@H]2C#N [Nr 132]	1.2	–
COc1ccc2c3c1OC1C[C@@H](O)C=CC31CCN(C(=O)NC1CCCCC1)C2 (mixture of isomers) [Nr 83]	–	> 100
CCOC(=O)CCN1CCC23C=C[C@H](O)CC2Oc2c(OC)ccc(c23)C1 (mixture of isomers) [Nr 78]	–	17
CCOC(=O)CN1CCC23C=C[C@H](O)CC2Oc2c(OC)ccc(c23)C1 (mixture of isomers) [Nr 100]	–	90
COc1ccc2c3c1O[C@H]1C[C@@H](O)C=C[C@@]31CCN(CCC(=O)OC(C)(C)C)C2 [Nr 116]	–	4
CCOC(=O)CN1CCC23C=C[C@H](O)CC2Oc2c(OC)cc(Br)c(c23)C1 (mixture of isomers) [Nr 26]	20	–
CCCCNC(=S)O[C@@H]1C=C[C@]23CCN(C)Cc4ccc(OC)c(c42)O[C@@H]3C1 [Nr 182]	85	–
COc1cc(Br)c2c3c1OC1C[C@@H](O)C=CC31CCNC2 (mixture of isomers) [Nr 93]	5	–
COc1ccc2c3c1O[C@H]1C[C@@H](O)C=C[C@@]31CCN(CCCN1CCCCC1)C2 [Nr 162]	0.36	–
COc1cc(Br)c2c3c1O[C@H]1C[C@@H](O)C=C[C@@]31CCNC2 [Nr 29]	3	–
COc1ccc2c3c1O[C@H]1C[C@@H](O)C=C[C@@]31CCN(CC#N)C2 [Nr 136]	15	–
COc1ccc2c3c1O[C@H]1C[C@@H](O)C=C[C@@]31CC[N+](C)(CCCN1CCCCC1)C2 (stereo partly shown) [Nr 4]	6	–
COc1cc(Br)c2c3c1OC1C[C@@H](O)C=CC31CCN(C(=O)CCN1CCCCC1)C2 (mixture of isomers) [Nr 43]	0.2	–
COc1ccc2c3c1O[C@H]1C[C@@H](O)C=C[C@@]31CCN(C(=O)OCC1c3ccccc3-c3ccccc31)C2 [Nr 134]	40	–
COc1cc(Br)c2c3c1O[C@@H]1C[C@H](O)C=C[C@]31CCN(C(=O)CN1CCN(C)CC1)C2 [Nr 272]	89	–
COc1ccc2c3c1O[C@H]1C[C@@H](O)C=C[C@@]31CCN(CCCCN1C(=O)c3ccccc3S1(=O)=O)C2 [Nr 165]	0.027	–
COc1ccc2c3c1O[C@H]1C[C@@H](OC(=O)N[C@H](C)c4ccccc4)C=C[C@@]31CCN(C)C2 [Nr 2]	–	70
COc1cc(Br)c2c3c1O[C@@H]1C[C@H](O)C=C[C@]31CCN(CCCN1CCN(C)CC1)C2 [Nr 273]	–	31
COc1cc(Br)c2c3c1OC1CC(=O)C=CC31CCN(C)C2 (racemic) [Nr 11]	50	–
COc1ccc2c3c1O[C@H]1C[C@@H](O)C=C[C@@]31CCN(CCCN(C)C)C2 (racemic) [Nr 74]	–	10
